# Target: T1, SMYD2 (Homo sapiens, UniProt Q9NRG4)
# T1 construct: Full length SMYD2 (NP_064582.2) was cloned; His6 (N, cleaved yes); FLAG (N); made in house; host or cells: Sf9 insect cells
# Experiment: SMYD2 biochemical assay (3H-SAM, biotinylated peptide substrate, Flashplate)
# Details: Table 1; average of n = 1 to n = 50; read-out: SMYD2 Biochem IC50
# Procedure, shortened: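 Full-length His/FLAG-tagged SMYD2 (tag removed, Sf9-expressed) at 1.5 nM was preincubated with compound for 30 min at room temperature in Bicine pH 7.6 buffer with 2% DMSO. Reaction used 10 nM 3H-SAM and 60 nM biotinylated peptide, stopped with 600 uM cold SAM. Streptavidin-captured 3H-peptide counted; IC50 from 3- or 4-parameter fit.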
# T1 sequence (Q9NRG4 whole entry): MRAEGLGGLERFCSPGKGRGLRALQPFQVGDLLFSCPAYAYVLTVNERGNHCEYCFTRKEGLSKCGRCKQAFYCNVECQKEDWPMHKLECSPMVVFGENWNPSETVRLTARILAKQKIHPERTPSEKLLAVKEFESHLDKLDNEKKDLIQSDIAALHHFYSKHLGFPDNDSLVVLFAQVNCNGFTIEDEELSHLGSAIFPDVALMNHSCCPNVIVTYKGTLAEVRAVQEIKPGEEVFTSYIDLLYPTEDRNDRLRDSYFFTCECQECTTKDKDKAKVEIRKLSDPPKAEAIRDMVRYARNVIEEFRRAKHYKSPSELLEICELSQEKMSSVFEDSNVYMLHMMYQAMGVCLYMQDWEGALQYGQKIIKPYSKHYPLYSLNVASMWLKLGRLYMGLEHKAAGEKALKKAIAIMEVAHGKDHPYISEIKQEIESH
row,Structure (SMILES),IC50 [µM]
1,"C[C@H]1CN(C2CC2)C[C@@H]1NC(=O)c1ccc2c(c1)CC(=O)N2 (racemic) [Cpd. No. 5, (±)-trans-N-(1-cyclopropyl-4-methylpyrrolidin-3-yl)-2-oxoindoline-5-carboxamide]",> 50
2,"C[C@H]1CN(C2CC2)C[C@H]1NC(=O)Cc1ccc2c(c1)NC(=O)CO2 (racemic) [compound 4, (±)-cis-N-(1-cyclopropyl-4-methylpyrrolidin-3-yl)-2-(3-oxo-3,4-dihydro-2H-benzo[b][1,4]oxazin-6-yl)acetamide]",> 50
3,"Cc1cc(C(=O)N[C@@H]2CN(C3CC3)C[C@@H]2C)n(Cc2ccccc2)n1 (racemic) [compound 10, (±)-cis-1-benzyl-N-(1-cyclopropyl-4-methylpyrrolidin-3-yl)-3-methyl-1H-pyrazole-5-carboxamide]",> 50
4,"CCc1cc(C(=O)N[C@H]2CN(C3CC3)C[C@@H]2C)ns1 (racemic) [compound 11, (±)-trans-N-(1-cyclopropyl-4-methylpyrrolidin-3-yl)-5-ethylisothiazole-3-carboxamide]",> 50
5,"C[C@H]1CN(C2CC2)C[C@@H]1NC(=O)c1ccc(N2CCCC2)cc1 (racemic) [compound 20, (±)-trans-N-(1-cyclopropyl-4-methylpyrrolidin-3-yl)-4-(pyrrolidin-1-yl)benzamide]",> 50
6,"CC1Oc2ccc(C(=O)N[C@@H]3CN(C4CC4)C[C@@H]3C)cc2NC1=O (mixture of isomers) [compound 8, (±)-cis-N-(1-cyclopropyl-4-methylpyrrolidin-3-yl)-2-methyl-3-oxo-3,4-dihydro-2H-benzo[b][1,4]oxazine-6-carboxamide]",> 50

# Same assay, conditions: Table 3; average of n = 1 to n = 50; read-out: SMYD2 Biochem IC50
row,IC50 [µM],Structure (SMILES)
1,> 50,"CC(C)N1C[C@@H](C)[C@H](NC(=O)c2cnc(C3CC3)o2)C1 (racemic) [compound 70, (±)-trans-2-cyclopropyl-N-[4-methyl-1-(propan-2-yl)pyrrolidin-3-yl]-1,3-oxazole-5-carboxamide]"
2,12,"CC(C)N1C[C@@H](C)[C@H](NC(=O)c2cc(C3CC3)cnn2)C1 (racemic) [compound 111, (±)-trans-5-cyclopropyl-N-[4-methyl-1-(propan-2-yl)pyrrolidin-3-yl]pyridazine-3-carboxamide]"
3,> 50,"CC(C)N1C[C@@H](C)[C@H](NC(=O)c2coc(C3CC3)n2)C1 (racemic) [compound 54, (±)-trans-2-cyclopropyl-N-[4-methyl-1-(propan-2-yl)pyrrolidin-3-yl]-1,3-oxazole-4-carboxamide]"
4,> 50,"CC(C)N1C[C@H](C)[C@H](NC(=O)c2ccc3c(c2)NC(=O)CO3)C1 (single isomer, unassigned) [compound 32, (+)-cis-N-[4-methyl-1-(propan-2-yl)pyrrolidin-3-yl]-3-oxo-3,4-dihydro-2H-1,4-benzoxazine-6-carboxamide]"
5,> 50,"CC(C)N1C[C@H](C)[C@H](NC(=O)c2cc(O)c3c(c2)OCC(=O)N3)C1 (racemic) [compound 85, (±)-cis-5-hydroxy-N-[4-methyl-1-(propan-2-yl)pyrrolidin-3-yl]-3-oxo-3,4-dihydro-2H-1,4-benzoxazine-7-carboxamide]"
6,> 50,"C[C@@H]1CN(C2CC2)C[C@H]1NC(=O)c1cccc(N2CCCC2)c1 (racemic) [compound 34, (±)-trans-N-[1-cyclopropyl-4-methylpyrrolidin-3-yl]-3-(pyrrolidin-1-yl)benzamide]"
7,> 50,"CC(C)N1C[C@H](NC(=O)c2ccc3c(c2)NC(=O)CO3)[C@@H](C)C1 (racemic) [compound 37, (±)-trans-N-[4-methyl-1-(propan-2-yl)pyrrolidin-3-yl]-3-oxo-3,4-dihydro-2H-1,4-benzoxazine-6-carboxamide]"
8,1.67,"C[C@H]1CN(C)C[C@H]1NC(=O)c1cc(C2CC2)cnn1 (racemic) [compound 103, (±)-cis-5-cyclopropyl-N-(1,4-dimethylpyrrolidin-3-yl)pyridazine-3-carboxamide]"
9,> 50,"C[C@H]1CN(C2CC2)C[C@H]1NC(=O)c1cccc(N2CCCC2)c1 (racemic) [compound 31, (±)-cis-N-[1-cyclopropyl-4-methylpyrrolidin-3-yl]-3-(pyrrolidin-1-yl)benzamide]"
10,19.3,"CC(C)N1C[C@@H](C)[C@H](NC(=O)c2cn(C3CC3)nn2)C1 (racemic) [compound 26, (±)-trans-1-cyclopropyl-N-[4-methyl-1-(propan-2-yl)pyrrolidin-3-yl]-1H-1,2,3-triazole-4-carboxamide]"

# Further lines, the compound ahead of its results:
row,Structure (SMILES),IC50 [µM]
1,"CC(C)N1C[C@@H](C)[C@H](NC(=O)c2nnc(C3CC3)o2)C1 (racemic) [compound 49, (±)-trans-5-cyclopropyl-N-[4-methyl-1-(propan-2-yl)pyrrolidin-3-yl]-1,3,4-oxadiazole-2-carboxamide]",26.8
2,"CC1CN(C(C)C)CC1NC(=O)c1ccn(C(C)C)n1 (racemic) [compound 44, (±)-trans-N-[4-methyl-1-(propan-2-yl)pyrrolidin-3-yl]-1-(propan-2-yl)-1H-pyrazole-3-carboxamide]",> 50
3,"CCc1cnnc(C(=O)N[C@@H]2CN(C(C)C)C[C@@H]2C)c1 (racemic) [compound 96, (±)-cis-5-ethyl-N-[4-methyl-1-(propan-2-yl)pyrrolidin-3-yl]pyridazine-3-carboxamide]",5.09
4,"CN(C)C1CCC(NC(=O)c2cn(C3CC3)nn2)C1 (centres unmarked) [compound 122, 1-cyclopropyl-N-[3-(dimethylamino)cyclopentyl]-1H-1,2,3-triazole-4-carboxamide]",> 50
5,"CC(C)N1C[C@@H](C)[C@H](NC(=O)c2nc(C3CC3)cs2)C1 (racemic) [compound 36, (±)-trans-4-cyclopropyl-N-[4-methyl-1-(propan-2-yl)pyirolidin-3-yl]-1,3-thiazole-2-carboxamide]",> 50
6,"CC(C)N1C[C@@H](C)[C@@H](NC(=O)c2nc(C3CC3)ns2)C1 (racemic) [compound 86, (±)-cis-3-cyclopropyl-N-[4-methyl-1-(propan-2-yl)pyrrolidin-3-yl]-1,2,4-thiadiazole-5-carboxamide]",> 50
7,"CC(C)N1C[C@H](C)[C@H](NC(=O)c2cc(C3CCC3)cnn2)C1 (racemic) [compound 94, (±)-cis-5-cyclobutyl-N-[4-methyl-1-(propan-2-yl)pyrrolidin-3-yl]pyridazine-3-carboxamide]",> 50
8,"CC(C)N1C[C@H](C)[C@H](NC(=O)c2cn(C3CC3)nn2)C1 (racemic) [compound 27, (±)-cis-1-cyclopropyl-N-[4-methyl-1-(propan-2-yl)pyrrolidin-3-yl]-1H-1,2,3-triazole-4-carboxamide]",0.781
9,"CC(C)N1C[C@@H](C)[C@H](NC(=O)c2noc(C3CC3)n2)C1 (racemic) [compound 39, (±)-trans-5-cyclopropyl-N-[4-methyl-1-(propan-2-yl)pyrrolidin-3-yl]-1,2,4-oxadiazole-3-carboxamide]",> 50
10,"CC(C)N1C[C@H](C)[C@H](NC(=O)c2noc(C3CC3)n2)C1 (racemic) [compound 38, (±)-cis-5-cyclopropyl-N-[4-methyl-1-(propan-2-yl)pyrrolidin-3-yl]-1,2,4-oxadiazole-3-carboxamide]",> 50
11,"CC(C)N1C[C@@H](C)[C@@H](NC(=O)c2cc(C3CC3)n(C)n2)C1 (racemic) [compound 89, (±)-cis-5-cyclopropyl-1-methyl-N-[4-methyl-1-(propan-2-yl)pyrrolidin-3-yl]-1H-pyrazole-3-carboxamide]",> 50
12,"CC(C)N1CCC(NC(=O)c2cc(C3CC3)cnn2)C1 (centres unmarked) [compound 95, 5-cyclopropyl-N-[1-(propan-2-yl)pyrrolidin-3-yl]pyridazine-3-carboxamide]",6.07
13,"CC(C)N1C[C@H](C)[C@H](NC(=O)c2cn(C(C)C)nn2)C1 (racemic) [compound 25, (±)-cis-N-[4-methyl-1-(propan-2-yl)pyrrolidin-3-yl]-1-(propan-2-yl)-1H-1,2,3-triazole-4-carboxamide]",6.34
14,"C[C@H]1CN(Cc2ccc(OCc3ccccc3)cc2)C[C@H]1NC(=O)c1cn(C2CC2)nn1 (stereo in doubt) [compound 106, (±)-cis-N-(1-{[4-(benzyloxy)phenyl]methyl}-4-methylpyrrolidin-3-yl)-1-cyclopropyl-1H-1,2,3-triazole-4-carboxamide]",0.46
15,"C[C@H]1CN(Cc2ccccc2)C[C@H]1NC(=O)c1cc(C2CC2)cnn1 (racemic) [compound 99, (±)-cis-N-(1-benzyl-4-methylpyrrolidin-3-yl)-5-cyclopropylpyridazine-3-carboxamide]",0.574

# Same assay, conditions: Table 4; average of n = 1 to n = 50; read-out: SMYD2 Biochem IC50
row,Structure (SMILES),IC50 [µM]
1,"CC(C)N1C[C@@H](N(C)C(=O)c2cc(C3CC3)cnn2)[C@@H](C)C1 (racemic) [compound 130, rac-5-cyclopropyl-N-((3R,4R)-1-isopropyl-4-methylpyrrolidin-3-yl)-N-methylpyridazine-3-carboxamide]",6.4
2,"CC(C)N1C[C@H](CO)[C@H](NC(=O)c2cc(C3CC3)cnn2)C1 (racemic) [compound 129, rac-5-cyclopropyl-N-((3R,4R)-4-(hydroxymethyl)-1-isopropylpyrrolidin-3-yl)pyridazine-3-carboxamide]",0.77
3,"CC(C)N1C[C@H](C)[C@H](NC(=O)c2cn(C3CC3)cn2)C1 (stereo in doubt) [compound 123, rac-1-cyclopropyl-N-((3R,4R)-1-isopropyl-4-methylpyrrolidin-3-yl)-1H-imidazole-4-carboxamide]",2.2
4,"C[C@@H]1CN(Cc2ccc(OCc3ccccc3)cc2)C[C@@H]1NC(=O)c1cn(C2CC2)nn1 (stereo in doubt) [compound 131, rac-N-((3R,4R)-1-(4-(benzyloxy)benzyl)-4-methylpyrrolidin-3-yl)-1-cyclopropyl-1H-1,2,3-triazole-4-carboxamide]",0.46

# From patent US20170247326A1, “Substituted Pyrrolidine Carboxamide Compounds” (EPIZYME, INC., priority 2014, published 2017)
